Values joined by “and” are separate entries in the source; they are usually repeats but may differ in a detail not shown here. Equal entries are not always repeated. Inconclusive results and toxic doses are left out.
Tested on: BDF1 mice, L1210 terephthalanilide-resistant leukemia ip, survival T/C
Test: NCI In Vivo Anticancer Drug Screen. Data for tumor model L1210 Leukemia resistant to A Terephthalanilide; NSC 38280 (intraperitoneal) in B6D2F1 (BDF1) mice
Settings: endpoint: mean survival time, higher = longer survival
Method: The antitumor activity of compounds was measured in mice bearing transplantable tumors. Survival or tumor size were measured and the results are expressed as the measurement made in the treated group (T) divided by the measurement made in the vehicle treated control group (C). The tumor model used in this assay is L1210 Leukemia resistant to A Terephthalanilide; NSC 38280 (intraperitoneal) in B6D2F1 (BDF1) mice

[1] = dose: 5.0 mg/kg/injection, schedule: Q01DX Z (ip), vehicle: carboxymethylcellulose (CMC)
[2] = dose: 12.5 mg/kg/injection, schedule: Q01DX Z (ip), vehicle: carboxymethylcellulose (CMC)
[3] = dose: 8.0 mg/kg/injection, schedule: Q01DX010 (ip), vehicle: saline
[4] = dose: 12.0 mg/kg/injection, schedule: Q01DX010 (ip), vehicle: saline
[5] = dose: 18.0 mg/kg/injection, schedule: Q01DX010 (ip), vehicle: saline
[6] = dose: 37.5 mg/kg/injection, schedule: Q01DX Z (ip), vehicle: carboxymethylcellulose (CMC)
[7] = dose: 50.0 mg/kg/injection, schedule: Q01DX Z (ip), vehicle: carboxymethylcellulose (CMC)
[8] = dose: 2.5 mg/kg/injection, schedule: Q01DX Z (ip), vehicle: carboxymethylcellulose (CMC)
[9] = dose: 80.0 mg/kg/injection, schedule: Q01DX010 (ip), vehicle: saline

O=C(O)CCCc1ccc(N(CCCl)CCCl)cc1
T/C (dose: 2.0 mg/kg/injection, schedule: Q01DX Z (ip), vehicle: carboxymethylcellulose (CMC)): 101 % of control | T/C (dose: 3.0 mg/kg/injection, schedule: Q01DX Z (ip), vehicle: carboxymethylcellulose (CMC)): 106 % of control | T/C (dose: 4.0 mg/kg/injection, schedule: Q01DX Z (ip), vehicle: carboxymethylcellulose (CMC)): 112 % of control | T/C [1]: 119 % of control | T/C (dose: 6.25 mg/kg/injection, schedule: Q01DX Z (ip), vehicle: carboxymethylcellulose (CMC)): 115 % of control | T/C [2]: 118 % of control

CCCCNc1ncnc2c1cnn2C
T/C (dose: 31.3 mg/kg/injection, schedule: Q01DX010 (ip), vehicle: saline): 100 % of control | T/C (dose: 62.5 mg/kg/injection, schedule: Q01DX010 (ip), vehicle: saline): 105 % of control and 108 % of control | T/C (dose: 125.0 mg/kg/injection, schedule: Q01DX010 (ip), vehicle: saline): 89 % of control

O=C(Nc1ccc(NC(=O)Nc2cccc(C3=NCCN3)c2)cc1)Nc1cccc(C2=NCCN2)c1
T/C (dose: 60.0 mg/kg/injection, schedule: Q01DX Z (ip), vehicle: carboxymethylcellulose (CMC)): 96 % of control | T/C (dose: 120.0 mg/kg/injection, schedule: Q01DX Z (ip), vehicle: carboxymethylcellulose (CMC)): 106 % of control | T/C (dose: 240.0 mg/kg/injection, schedule: Q01DX Z (ip), vehicle: carboxymethylcellulose (CMC)): 106 % of control

CN(C)c1ccc(/C=C\c2ccnc3ccccc23)cc1
T/C (dose: 5.0 mg/kg/injection, schedule: Q01DX010 (ip), vehicle: saline): 98 % of control | T/C [3]: 100 % of control | T/C [4]: 100 % of control | T/C [5]: 92 % of control and 95 % of control | T/C (dose: 18.75 mg/kg/injection, schedule: Q01DX Z (ip), vehicle: carboxymethylcellulose (CMC)): 101 % of control | T/C (dose: 27.0 mg/kg/injection, schedule: Q01DX010 (ip), vehicle: saline): 89 % of control | T/C [6]: 95 % of control | T/C [7]: 90 % of control

Clc1ccc(C(c2ccccc2Cl)C(Cl)Cl)cc1 (configuration not stated)
T/C (dose: 62.5 mg/kg/injection, schedule: Q01DX Z (sc), vehicle: steriod suspending solution): 102 % of control | T/C (dose: 125.0 mg/kg/injection, schedule: Q01DX Z (sc), vehicle: steriod suspending solution): 104 % of control | T/C (dose: 250.0 mg/kg/injection, schedule: Q01DX Z (sc), vehicle: steriod suspending solution): 93 % of control | T/C (dose: 500.0 mg/kg/injection, schedule: Q01DX Z (sc), vehicle: steriod suspending solution): 102 % of control | T/C (dose: 750.0 mg/kg/injection, schedule: Q01DX Z (sc), vehicle: steriod suspending solution): 100 % of control | T/C (dose: 1000.0 mg/kg/injection, schedule: Q01DX Z (sc), vehicle: steriod suspending solution): 95 % of control | T/C (dose: 1200.0 mg/kg/injection, schedule: Q01DX Z (sc), vehicle: steriod suspending solution): 94 % of control | T/C (dose: 1500.0 mg/kg/injection, schedule: Q01DX Z (sc), vehicle: steriod suspending solution): 91 % of control

NC(=O)N(CCCl)N=O
T/C (dose: 0.5 mg/kg/injection, schedule: Q01DX010 (ip), vehicle: saline): 162 % of control | T/C (dose: 1.0 mg/kg/injection, schedule: Q01DX010 (ip), vehicle: saline): 165 % of control | T/C (dose: 1.0 mg/kg/injection, schedule: Q01DX Z (ip), vehicle: saline): 348 % of control | T/C (dose: 2.0 mg/kg/injection, schedule: Q01DX Z (ip), vehicle: saline): 252 % of control | T/C (dose: 6.0 mg/kg/injection, schedule: Q01DX Z (ip), vehicle: saline): 110 % of control

CC(CCC(C)OS(C)(=O)=O)OS(C)(=O)=O (configuration not stated)
T/C (dose: 2.0 mg/kg/injection, schedule: Q01DX010 (ip), vehicle: saline): 102 % of control | T/C [8]: 94 % of control | T/C (dose: 4.0 mg/kg/injection, schedule: Q01DX010 (ip), vehicle: saline): 95 % of control and 100 % of control | T/C [1]: 97 % of control | T/C (dose: 7.5 mg/kg/injection, schedule: Q01DX Z (ip), vehicle: carboxymethylcellulose (CMC)): 103 % of control | T/C [3]: 100 % of control | T/C (dose: 10.0 mg/kg/injection, schedule: Q01DX Z (ip), vehicle: carboxymethylcellulose (CMC)): 111 % of control | T/C [2]: 109 % of control | T/C (dose: 16.0 mg/kg/injection, schedule: Q01DX010 (ip), vehicle: saline): 100 % of control and 112 % of control | T/C (dose: 25.0 mg/kg/injection, schedule: Q01DX Z (ip), vehicle: carboxymethylcellulose (CMC)): 88 % of control | T/C (dose: 32.0 mg/kg/injection, schedule: Q01DX010 (ip), vehicle: saline): 110 % of control

CN(C)c1ccc(Nc2c3ccccc3nc3ccccc23)cc1
T/C (dose: 36.0 mg/kg/injection, schedule: Q01DX010 (ip), vehicle: saline): 108 % of control | T/C (dose: 54.0 mg/kg/injection, schedule: Q01DX010 (ip), vehicle: saline): 102 % of control and 111 % of control | T/C [9]: 97 % of control and 109 % of control | T/C (dose: 120.0 mg/kg/injection, schedule: Q01DX010 (ip), vehicle: saline): 119 % of control

Cn1c(N)nc2nc[nH]c2c1=S
T/C (dose: 10.0 mg/kg/injection, schedule: Q01DX010 (ip), vehicle: saline): 103 % of control | T/C (dose: 16.0 mg/kg/injection, schedule: Q01DX Z (ip), vehicle: carboxymethylcellulose (CMC)): 111 % of control | T/C (dose: 20.0 mg/kg/injection, schedule: Q01DX010 (ip), vehicle: saline): 93 % of control | T/C (dose: 31.0 mg/kg/injection, schedule: Q01DX Z (ip), vehicle: carboxymethylcellulose (CMC)): 120 % of control | T/C [6]: 150 % of control | T/C (dose: 40.0 mg/kg/injection, schedule: Q01DX010 (ip), vehicle: saline): 99 % of control | T/C [7]: 154 % of control | T/C (dose: 75.0 mg/kg/injection, schedule: Q01DX Z (ip), vehicle: carboxymethylcellulose (CMC)): 119 % of control | T/C [9]: 100 % of control | T/C (dose: 150.0 mg/kg/injection, schedule: Q01DX Z (ip), vehicle: carboxymethylcellulose (CMC)): 150 % of control

O=C(Nc1ccc(C2=NCCN2)cc1)c1ccc(C(=O)Nc2ccc(C3=NCCN3)cc2)c([N+](=O)[O-])c1
T/C (dose: 6.0 mg/kg/injection, schedule: Q01DX010 (ip), vehicle: saline): 102 % of control and 108 % of control | T/C [3]: 100 % of control and 113 % of control | T/C [4]: 112 % of control and 119 % of control | T/C [5]: 89 % of control and 95 % of control

Nc1ncnc2c1ccn2C1OC(CO)C(O)C1O (configuration not stated)
T/C (dose: 0.23 mg/kg/injection, schedule: Q01DX Z (ip), vehicle: saline): 98 % of control | T/C (dose: 0.47 mg/kg/injection, schedule: Q01DX Z (ip), vehicle: saline): 113 % of control | T/C (dose: 0.93 mg/kg/injection, schedule: Q01DX Z (ip), vehicle: saline): 109 % of control | T/C (dose: 1.87 mg/kg/injection, schedule: Q01DX Z (ip), vehicle: saline): 116 % of control | T/C [8]: 103 % of control
